Measurements as given in paper PMC11390765 (Cancer Chemotherapy and Pharmacology, 2024).

Experiments:
[1] = Safety and tolerability (adverse events, CTCAE v5.0; full analysis set); assay type: in vivo, human
Procedure: Safety and tolerability were evaluated in terms of AEs, which were classified and graded according to the National Cancer Institute (NCI) Common Terminology Criteria for Adverse Events (CTCAE) v5.0; vital signs; 12-lead electrocardiogram (ECG); and clinical laboratory assessments, including clinical chemistry and hematology parameters, urinalysis, HbA1c levels, and lipid profiles.
Efficacy analyses were also performed on the full analysis set. Summary and/or descriptive statistics were used to analyze baseline demographic, safety, and efficacy data; PFS and DoR were estimated using Kaplan–Meier methodology.

[2] = system: all three isoforms of AKT; parameters: method as in PMID 22294718; conditions: cited from earlier work
[3] = period 2, days 2–7 cycle 1, capivasertib only 400 mg BID, N=21
[4] = total, all treatment periods, N=21

## NC1(C(=O)N[C@@H](CCO)c2ccc(Cl)cc2)CCN(c2nc[nH]c3nccc2-3)CC1 [capivasertib]
[1]; [3]
  Diarrhea, any grade: 6 (28.6) n (%)
  Diarrhea, grade ≥ 3: 0 n (%)
  Fatigue, any grade: 0 n (%)
  Fatigue, grade ≥ 3: 0 n (%)
  Gamma-glutamyl transferase increased, any grade: 0 n (%)
  Gamma-glutamyl transferase increased, grade ≥ 3: 0 n (%)
  Hyperglycemia, any grade: 1 (4.8) n (%)
  Hyperglycemia, grade ≥ 3: 0 n (%)
  Hypoalbuminemia, any grade: 1 (4.8) n (%)
  Hypoalbuminemia, grade ≥ 3: 1 (4.8) n (%)
  Hypokalemia, any grade: 1 (4.8) n (%)
  Hypokalemia, grade ≥ 3: 0 n (%)
  Hyponatremia, any grade: 1 (4.8) n (%)
  Hyponatremia, grade ≥ 3: 0 n (%)
  Hypotension, any grade: 0 n (%)
  Hypotension, grade ≥ 3: 0 n (%)
  Large intestinal obstruction, any grade: 0 n (%)
  Large intestinal obstruction, grade ≥ 3: 0 n (%)
  Lymphocyte count decreased, any grade: 1 (4.8) n (%)
  Lymphocyte count decreased, grade ≥ 3: 1 (4.8) n (%)
  Nausea, any grade: 2 (9.5) n (%)
  Nausea, grade ≥ 3: 0 n (%)
  Rash (group term), any grade: 0 n (%)
  Rash (group term), grade ≥ 3: 0 n (%)
  Sepsis, any grade: 0 n (%)
  Sepsis, grade ≥ 3: 0 n (%)
  Thrombocytopenia, any grade: 1 (4.8) n (%)
  Thrombocytopenia, grade ≥ 3: 1 (4.8) n (%)
  Ureteric obstruction, any grade: 0 n (%)
  Ureteric obstruction, grade ≥ 3: 0 n (%)
  Urticaria, any grade: 0 n (%)
  Urticaria, grade ≥ 3: 0 n (%)
[1]; [4]
  Abdominal pain, any grade: 2 (9.5) n (%)
  Abdominal pain, grade ≥ 3: 1 (4.8) n (%)
  Anemia, any grade: 6 (28.6) n (%)
  Anemia, grade ≥ 3: 1 (4.8) n (%)
  Any AE, any grade: 21 (100) n (%)
  Any AE, grade ≥ 3: 14 (66.7) n (%)
  Asthenia, any grade: 3 (14.3) n (%)
  Asthenia, grade ≥ 3: 1 (4.8) n (%)
  Blood alkaline phosphatase increased, any grade: 1 (4.8) n (%)
  Blood alkaline phosphatase increased, grade ≥ 3: 1 (4.8) n (%)
  Blood bilirubin increased, any grade: 2 (9.5) n (%)
  Blood bilirubin increased, grade ≥ 3: 1 (4.8) n (%)
  Blood creatinine increased, any grade: 3 (14.3) n (%)
  Blood creatinine increased, grade ≥ 3: 0 n (%)
  COVID-19, any grade: 2 (9.5) n (%)
  COVID-19, grade ≥ 3: 1 (4.8) n (%)
  Decreased appetite, any grade: 5 (23.8) n (%)
  Decreased appetite, grade ≥ 3: 2 (9.5) n (%)
  Diarrhea, any grade: 16 (76.2) n (%)
  Diarrhea, grade ≥ 3: 1 (4.8) n (%)
  Fatigue, any grade: 7 (33.3) n (%)
  Fatigue, grade ≥ 3: 2 (9.5) n (%)
  Gamma-glutamyl transferase increased, any grade: 1 (4.8) n (%)
  Gamma-glutamyl transferase increased, grade ≥ 3: 1 (4.8) n (%)
  Hyperglycemia, any grade: 6 (28.6) n (%)
  Hyperglycemia, grade ≥ 3: 1 (4.8) n (%)
  Hypoalbuminemia, any grade: 1 (4.8) n (%)
  Hypoalbuminemia, grade ≥ 3: 1 (4.8) n (%)
  Hypokalemia, any grade: 5 (23.8) n (%)
  Hypokalemia, grade ≥ 3: 1 (4.8) n (%)
  Hyponatremia, any grade: 4 (19.0) n (%)
  Hyponatremia, grade ≥ 3: 1 (4.8) n (%)
  Hypotension, any grade: 4 (19.0) n (%)
  Hypotension, grade ≥ 3: 1 (4.8) n (%)
  Large intestinal obstruction, any grade: 1 (4.8) n (%)
  Large intestinal obstruction, grade ≥ 3: 1 (4.8) n (%)
  Lymphocyte count decreased, any grade: 3 (14.3) n (%)
  Lymphocyte count decreased, grade ≥ 3: 1 (4.8) n (%)
  Nausea, any grade: 7 (33.3) n (%)
  Nausea, grade ≥ 3: 0 n (%)
  Rash (group term), any grade: 8 (38.1) n (%)
  Rash (group term), grade ≥ 3: 3 (14.3) n (%)
  Sepsis, any grade: 1 (4.8) n (%)
  Sepsis, grade ≥ 3: 1 (4.8) n (%)
  Thrombocytopenia, any grade: 1 (4.8) n (%)
  Thrombocytopenia, grade ≥ 3: 1 (4.8) n (%)
  Ureteric obstruction, any grade: 1 (4.8) n (%)
  Ureteric obstruction, grade ≥ 3: 1 (4.8) n (%)
  Urticaria, any grade: 1 (4.8) n (%)
  Urticaria, grade ≥ 3: 1 (4.8) n (%)
[1]; treatment period 2, not considered related to capivasertib or midazolam
  patients who experienced a grade 4 AE (thrombocytopenia): 4.8%
[2]
  inhibition of AKT isoforms: potent, selective inhibitor
